# Assay results from patent publication US20250009895A1, “DRUG LOADING MONOMOLECULAR NANO POLYMER, PRODRUG, MICELLE, DRUG DELIVERY SYSTEM, PREPARATION METHOD, AND USE” (priority 2021, published 2025).
# Test system: A549 lung cancer subcutaneous xenograft model
# Assay: Tumor drug accumulation test, Pt in tumor by ICP-MS
# Format: in vivo, Bal b/c nude mice
# Settings: tail vein injection, CPT 5 mg/kg and Pt 1.8 mg/kg
# Procedure: The tumor model used in this example was A549 lung cancer subcutaneous xenograft model. Female Bal b/c nude mice at the age of 8 weeks were administrated with the drug formulation via tail vein injection at a dose of 200 microliters with CPT at 5 mg/kg and Pt at 1.8 mg/kg. Equivalent amounts of cisplatin and the self-assembled dual-drug nano-formulation cisplatin@PEG-PGlu(ss-CPT) served as controls. At different time points after the intravenous injection, the mice were dissected, and the tumor tissues were collected and fully dissolved in concentrated nitric acid. The Pt contents in the tumor tissues were measured using ICP-MS.
compound,measurement,value
N.N.[Cl][Pt][Cl] [cisplatin],drug (Pt) concentration / enrichment in the tumor,relatively low
